Target: T1, asialoglycoprotein receptor (ASGPR) (Homo sapiens, UniProt P07306)
T1 sequence (P07306 1-291): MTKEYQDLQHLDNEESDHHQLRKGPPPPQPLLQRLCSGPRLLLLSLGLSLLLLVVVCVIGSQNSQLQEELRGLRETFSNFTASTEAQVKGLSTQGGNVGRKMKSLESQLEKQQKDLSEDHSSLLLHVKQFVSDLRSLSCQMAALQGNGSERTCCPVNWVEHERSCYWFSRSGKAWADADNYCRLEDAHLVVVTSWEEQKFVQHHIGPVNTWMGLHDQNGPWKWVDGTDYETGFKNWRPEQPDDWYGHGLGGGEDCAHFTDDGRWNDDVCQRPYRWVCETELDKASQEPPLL
Assay: Surface plasmon resonance binding to immobilized ASGPR
Conditions: calculated from 1/Kads

CC(=O)N[C@H]1C(O)O[C@H](CO)[C@H](O)[C@@H]1O (mixture of isomers) [GalNAc, N-acetylgalactosamine]
calculated ligand efficiency (LE): 0.41

Reference: publication PMC6991140 (Journal of the American Chemical Society, 2017)
